The structures appear in SMILES notation.

This is an account of results in patent publication US20240002393A1, “SUBSTITUTED BENZO[f][l ,2,4JTRIAZOL0[4,3-a][l ,4J[…] GABA A GAMMA! POSITIVE ALLOSTERIC MODULATORS” (Hoffmann-La Roche Inc., priority 2020, published 2024).

Assay [1] concerns the target human GABAA α5β2γ1 receptor (Homo sapiens (Human), UniProt P31644+Q8N1C3). The assay can be described thus: Radioligand binding assay, [3H]RO7239181 competition, γ1-containing GABAA subtypes. The settings on record: HEK293F membranes, mean of two determinations. The procedure: The affinity of compounds at GABAA γ1 subunit-containing receptors was measured by competition for [^3H]RO7239181 (67.3 Ci/mmol; Roche) binding to membranes from HEK293F cells (ThermoFisher R79007) expressing human (transiently transfected) receptors of composition α5β2γ1, α2β2γ1, α1β2γ1. For better protein expression of the α2 subunit-containing receptors, the 28 amino acid long signal peptide (Met1 to Ala28) of the human GABAA α2 subunit was substituted by the 31 amino acid long signal peptide (Met1 to Ser31) of human GABAA α5 subunit.
Harvested pellets from HEK293F cells expressing the different GABAA receptor subtypes were resuspended in Mannitol Buffer pH 7.2-7.4 (Mannitol 0.29M, Triethylamine 10 mM, Acetic acid 10 mM, EDTA 1 mM plus protease inhibitors (20 tablets Complete, Roche Diagnostics Cat. No. 05 056 489 001 per liter)), washed two times and then resuspended at 1:10 to 1:15 dilution in the same buffer. Cell disruption was performed by stirring the suspension in a Parr vessel #4637 at 435 psi for 15 minutes, and then the suspensions were centrifuged at 1000×g for 15 minutes at 4° C. (Beckman Avanti J-HC; rotor JS)-4.2). The supernatant (S1) was transferred in a 21 Schott flask and the pellet (P1) was resuspended with Mannitol Buffer up to 175 ml. The resuspended pellet was transferred into a 250 ml Corning centrifugal beaker and centrifuged at 1500×g for 10 minutes at 4° C. (Beckman Avanti J-HC; rotor JS)-4.2). The supernatant (S1) was then transferred in the 21 Schott flask and the pellet was discarded. The supernatants (S1) were centrifuged in 500 ml Beckman polypropylene centrifugal beaker at 15,000×g for 30 minutes at 4° C. (Beckman Avanti J-20 XP; rotor JLA-10.500). The pellet (P2) was resuspended with Mannitol Buffer 1:1 and frozen at −80° C. The supernatant (S2) was centrifuged in 100 ml Beckman polypropylene centrifugal tubes at 48000×g for 50 minutes at […] (Beckman Avanti J-20 XP; rotor JA-18). The supernatant (S3) was discarded and the pellet (P3) was resuspended with 1:1 Mannitol Buffer. The P2 and P3 protein concentration was determined with the BIORAD Standard assay method with bovine serum albumin as standard and measured on the NANO-Drop 1000. The membrane suspension was aliquots (500 μl per tube) and stored at −80° C. until required.
Membrane homogenates were resuspended and polytronised (Polytron PT1200E Kinematica AG) in Potassium Phosphate 10 mM, KCl 100 mM binding buffer at pH 7.4 to a final assay concentration determined with a previous experiment.
Radioligand binding assays were carried out in a volume of 200 µL (96-well plates) which contained 100 μL of cell membranes, [^3H]RO7239181 at a concentration of 1.5 nM (α5β2γ1) or 20-30 nM (α1β2γ1, 2β2γ1) and the test compound in the range of [0.3-10000]×10^−9 M. Nonspecific binding was defined by 10×10^−6 (α5β2γ1) and 30×10^−6 M RO7235136 and typically represented less than 5% (α5β2γ1) and less than 20% (α1β2γ1, α2β2γ1) of the total binding. Assays were incubated to equilibrium for 1 hour at 4° C. and then, membranes were filtered onto unifilter (96-well white microplate with bonded GF/C filters preincubated 20-50 minutes in 0.3% Polyethylenimine) with a Filtermate 196 harvester (Packard BioScience) and washed 4 times with cold Potassium Phosphate 10 mM pH 7.4, KCl 100 mM binding buffer. After drying, filter-retained radioactivity was detected by liquid scintillation counting. K, values were calculated using Excel-Fit (Microsoft) and are the means of two determinations.
Representative test results, obtained by the above described assay measuring binding affinity to HEK293 cells expressing human (h) receptors, are shown in the Table 1.

The target of assay [2] is human GABAA α1β3γ2 receptor (Homo sapiens (Human), UniProt P14867+P18507). The assay can be described thus: Radioligand binding assay, [3H]Flumazenil competition, γ2-containing GABAA subtypes. The settings on record: HEK293F membranes, [3H]Flumazenil 1 nM, mean of two determinations; read-out: Ki h-GABAA α1β3γ2. As to the method: The affinity of compounds at GABAA γ2 subunit-containing receptors was measured by competition for [^3H]Flumazenil (81.1 Ci/mmol; Roche) binding to HEK293F cells expressing human (transiently transfected) receptors of composition α1β3γ2.
Harvested pellets from HEK293F cells expressing the different GABAA γ2 receptor subtypes were resuspended in Mannitol Buffer pH 7.2-7.4 and processed as described above for the cells expressing the GABAA γ1 subunit-containing receptors.
Assays were incubated to equilibrium for 1 hour at 4° C. and harvested onto GF/C uni-filters (Packard) by filtration using a Packard harvester and washing with ice-cold wash buffer (50 mM Tris; pH 7.5). After drying, filter-retained radioactivity was detected by liquid scintillation counting. Ki values were calculated using Exel-Fit (Microsoft) and are the means of two determinations.

In the case of `C[C@@H]1N=C(c2ncccc2F)c2c(ccc(Cl)c2Cl)-n2c(C3CC3)nnc21` [Example 68, (4S)-7,8-dichloro-1-cyclopropyl-6-(3-fluoro-2-pyridyl)-4-methyl-4H-[1,2,4]triazolo[4,3-a][1,4]benzodiazepine], the inhibitory constant (Ki) in assay [1] turned out to be 0.007 µM; in assay [2] it was 1.06 µM.
For `C[C@@H]1N=C(c2c(F)cccc2F)c2c(ccc(Cl)c2Br)-n2c(-c3cccnn3)nnc21` [Example 73, (4S)-7-bromo-8-chloro-6-(2,6-difluorophenyl)-4-methyl-1-(pyridazin-3-yl)-4H-benzo[f][1,2,4]triazolo[4,3-a][1,4]diazepine], the Ki worked out at 0.002 µM in assay [1] and 0.768 µM in assay [2].
For `C[C@@H]1N=C(c2c(F)cccc2F)c2c(ccc(Cl)c2Br)-n2c(-c3ccncn3)nnc21` [Example 74, (4S)-7-bromo-8-chloro-6-(2,6-difluorophenyl)-4-methyl-1-pyrimidin-4-yl-4H-[1,2,4]triazolo[4,3-a][1,4]benzodiazepine] the same measures were 0.0026 µM and 1.87 µM.
For `Cc1nnc2n1-c1ccc(Br)c(Cl)c1C(c1c(F)cccc1F)=N[C@H]2C` [Example 75, (4S)-8-bromo-7-chloro-6-(2,6-difluorophenyl)-1,4-dimethyl-4H-[1,2,4]triazolo[4,3-a][1,4]benzodiazepine] the same measures were 0.0008 µM and 0.202 µM.
With `C[C@@H]1N=C(c2c(F)cccc2F)c2c(ccc(Cl)c2Br)-n2c(-c3cnn(C)c3)nnc21` [Example 76, (4S)-7-bromo-8-chloro-6-(2,6-difluorophenyl)-4-methyl-1-(1-methylpyrazol-4-yl)-4H-[1,2,4]triazolo[4,3-a][1,4]benzodiazepine], the results for the Ki in assay [1] and in assay [2] were 0.0036 µM and 0.53 µM, respectively.
Consider `Cc1nnc2n1-c1ccc(Cl)c(Br)c1C(c1c(F)cccc1F)=N[C@H]2C` [Example 80, (4S)-7-bromo-8-chloro-6-(2,6-difluorophenyl)-1,4-dimethyl-4H-[1,2,4]triazolo[4,3-a][1,4]benzodiazepine], for which the Ki in assay [1] was found to be 0.003 µM; in assay [2] it was 1.07 µM.
Turning to `C[C@@H]1N=C(c2c(F)cccc2F)c2c(ccc(Cl)c2Br)-n2c(-c3ccn(C)n3)nnc21` [Example 81, (4S)-7-bromo-8-chloro-6-(2,6-difluorophenyl)-4-methyl-1-(1-methylpyrazol-3-yl)-4H-[1,2,4]triazolo[4,3-a][1,4]benzodiazepine], the Ki in assay [1] was 0.0043 µM; in assay [2], 1.56 µM.
On to `Cc1nnc2n1-c1ccc(Cl)c(Cl)c1C(c1c(F)cccc1F)=N[C@H]2C` [Example 82, (4S)-7,8-dichloro-6-(2,6-difluorophenyl)-1,4-dimethyl-4H-[1,2,4]triazolo[4,3-a][1,4]benzodiazepine], for which the Ki is 0.0006 µM in assay [1] and 0.261 µM in assay [2].
Consider `C[C@@H]1N=C(c2ncccc2F)c2c(ccc(Br)c2Cl)-n2c(C3CC3)nnc21` [Example 83, (4S)-8-bromo-7-chloro-1-cyclopropyl-6-(3-fluoro-2-pyridyl)-4-methyl-4H-[1,2,4]triazolo[4,3-a][1,4]benzodiazepine], for which the inhibition constant (Ki) came out at 0.0027 µM in assay [1] and 0.853 µM in assay [2].
Turning to `C[C@@H]1N=C(c2ncccc2F)c2c(ccc(Br)c2Cl)-n2cnnc21` [Example 84, (4S)-8-bromo-7-chloro-6-(3-fluoro-2-pyridyl)-4-methyl-4H-[1,2,4]triazolo[4,3-a][1,4]benzodiazepine], the Ki in assay [1] was 0.0065 µM; in assay [2], 1.21 µM.
With `Cc1nnc2n1-c1ccc(Br)c(Cl)c1C(c1ncccc1F)=N[C@H]2C` [Example 85, (4S)-8-bromo-7-chloro-6-(3-fluoro-2-pyridyl)-1,4-dimethyl-4H-[1,2,4]triazolo[4,3-a][1,4]benzodiazepine], the Ki in assay [1] was 0.0033 µM; in assay [2], 0.705 µM.
For `Cc1ccc(-c2nnc3n2-c2ccc(Cl)c(Cl)c2C(c2c(F)cccc2F)=N[C@H]3C)nn1` [Example 86, (4S)-7,8-dichloro-6-(2,6-difluorophenyl)-4-methyl-1-(6-methylpyridazin-3-yl)-4H-[1,2,4]triazolo[4,3-a][1,4]benzodiazepine] the same measures were 0.0014 µM and 0.86 µM.
`Cc1cc(-c2nnc3n2-c2ccc(Cl)c(Cl)c2C(c2c(F)cccc2F)=N[C@H]3C)on1` [Example 87, 5-[(4S)-7,8-dichloro-6-(2,6-difluorophenyl)-4-methyl-4H-[1,2,4]triazolo[4,3-a][1,4]benzodiazepin-1-yl]-3-methyl-isoxazole]: the Ki in assay [1] came to 0.0021 µM; in assay [2], 0.531 µM.
For `Cc1ccc(-c2nnc3n2-c2ccc(Cl)c(Br)c2C(c2c(F)cccc2F)=N[C@H]3C)nn1` [Example 88, (4S)-7-bromo-8-chloro-6-(2,6-difluorophenyl)-4-methyl-1-(6-methylpyridazin-3-yl)-4H-[1,2,4]triazolo[4,3-a][1,4]benzodiazepine] the same measures were 0.0036 µM and 1.45 µM.
For `C[C@@H]1N=C(c2c(F)cccc2F)c2c(ccc(Cl)c2Br)-n2c1n[nH]c2=O` [Example 89, (4S)-7-bromo-8-chloro-6-(2,6-difluorophenyl)-4-methyl-2,4-dihydro-[1,2,4]triazolo[4,3-a][1,4]benzodiazepin-1-one] the same measures were 0.0043 µM and 1.46 µM.
For `Cc1nnc2n1-c1ccc(C(F)(F)F)c(Cl)c1C(c1c(F)cccc1F)=N[C@H]2C` [Example 92, (4S)-7-chloro-6-(2,6-difluorophenyl)-1,4-dimethyl-8-(trifluoromethyl)-4H-[1,2,4]triazolo[4,3-a][1,4]benzodiazepine] the same measures were 0.0018 µM and 2.23 µM.
Turning to `Cc1nnc2n1-c1ccc(C(C)(F)F)c(Cl)c1C(c1c(F)cccc1F)=N[C@H]2C` [Example 93, (4S)-7-chloro-8-(1,1-difluoroethyl)-6-(2,6-difluorophenyl)-1,4-dimethyl-4H-[1,2,4]triazolo[4,3-a][1,4]benzodiazepine], the Ki in assay [1] stood at 0.0031 µM; in assay [2] it was 5.96 µM.
For `Cc1cc(-c2nnc3n2-c2ccc(Cl)c(Cl)c2C(c2c(F)cccc2F)=N[C@H]3C)ncn1` [Example 94, (4S)-7,8-dichloro-6-(2,6-difluorophenyl)-4-methyl-1-(6-methylpyrimidin-4-yl)-4H-[1,2,4]triazolo[4,3-a][1,4]benzodiazepine], the Ki turned out to be 0.002 µM in assay [1] and 0.609 µM in assay [2].
For `Cc1nccc(-c2nnc3n2-c2ccc(Cl)c(Cl)c2C(c2c(F)cccc2F)=N[C@H]3C)n1` [Example 95, (4S)-7,8-dichloro-6-(2,6-difluorophenyl)-4-methyl-1-(2-methylpyrimidin-4-yl)-4H-[1,2,4]triazolo[4,3-a][1,4]benzodiazepine] the same measures were 0.0015 µM and 0.466 µM.
